These results are taken from the METLIN SMRT retention time set (Domingo-Almenara et al. 2019).

The data set can be described thus: gradient 5% acetonitrile 3 min, to 50% in 2 min, to 85% in 15 min, held 3 min, 100 µL/min. Particulars: column: Zorbax Extend-C18 2.1 x 50 mm; eluents: water / acetonitrile, 0.1% formic acid. The method, boiled down:
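Values are retention times taken from adduct peaks that software picked and an analyst inspected. The pure standards were run as mixtures of ~100 molecules on HPLC linked to a quadrupole time-of-flight mass spectrometer, in positive and negative ionization mode. A Zorbax Extend-C18 column (2.1 × 50 mm, 1.8 μm) was used at 100 μL/min with water and acetonitrile, each including 0.1% formic acid.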
Compound `COc1cccc(C2Cn3nnc(-c4nc(-c5ccc(C(F)(F)F)cc5)no4)c3CO2)c1` (stereo unspecified) registered an RP-LC retention time of 1270 s.
The same measure for `O=C(Nc1cccc(-c2cn3c(n2)SCC3)c1)c1cc(-c2ccco2)on1`: 667 s; for `CCOC(=O)c1nnc2c(-c3ccccc3OC)c(C)nn2c1C`: 924 s.
The figure for `Cc1cccn2cc(-c3cccc(S(=O)(=O)N4CCCCC4)c3)nc12` is 700 s; for `CSc1ccc(CNC(=O)CCNc2cnc3cnccn23)cc1` it is 588 s; for `O=c1c2sccc2n(Cc2nc(-c3ccc(F)c(Cl)c3)no2)c(=O)n1-c1cccc(F)c1` it is 1070 s.
The same measure for `Cn1nc(C(=O)N2CCCC(C(=O)NC3CC3)C2)c2c1CCN(C(=O)c1ccccc1Cl)C2` (stereo unspecified): 648 s; for `O=C(NCc1ccco1)C1CCN(C(=O)c2ncn3c2COC(c2ccc(Cl)cc2)C3)CC1` (stereo unspecified): 753 s.
Compound `O=C(NCc1cccs1)c1nc(-c2ccc(N3CCCC3)cc2)no1` showed an RP-LC retention time of 1110 s.
The same measure for `CN1CCN(CCCNC(=O)C2CCN(c3nc4cccnc4s3)CC2)CC1`: 558 s; for `COc1ccc(CC(=O)Nc2ccc3c(c2)Sc2ncccc2C(=O)N3C)c(Cl)c1`: 804 s.
The same measure for `CCc1onc(C)c1C1CCCN1C(=O)Nc1ccccc1Cl` (stereo unspecified): 907 s; for `CCCCNc1nc(-c2ccc(OC)cc2)nc2ccccc12`: 807 s; for `CCCCCn1c(SCC(=O)OCC)nc2cc(C(=O)N3CCC(C(N)=O)CC3)ccc2c1=O`: 783 s.
As for `CCN1CCn2cc(S(=O)(=O)Nc3cc(F)ccc3C)cc2C1=O`, the RP-LC retention time is 725 s.
`O=C(NC1CCCCC1)C1CCN(C(=O)c2ncn3c2COC(c2ccc(F)cc2)C3)CC1` (stereo unspecified) registered an RP-LC retention time of 784 s.
The same measure for `Cc1ccc(CC(=O)N(CCS(=O)(=O)N2CCNCC2)CC2CCCO2)cc1` (stereo unspecified): 645 s.
Turning to `CCCC(=O)N1CC(c2nc(-c3cccnc3)no2)C2(CCOCC2)C1` (stereo unspecified), the RP-LC retention time is 622 s.
`Cc1ccc(C2CCCN2C(=O)c2nc3nc(C)cc(C(F)F)n3n2)cc1` (stereo unspecified): the RP-LC retention time was 835 s.
The same measure for `O=c1c2nc(-c3ccc(F)cc3F)cn2ccn1-c1ccc(Cl)cc1`: 921 s; for `CCn1c(=O)sc2cc(S(=O)(=O)N3CCC(C(=O)Nc4ccc5c(c4)OCO5)CC3)ccc21`: 863 s; for `O=C(c1cccc(C(F)(F)F)c1)N1CCN(c2nc(CN3CCOCC3)cs2)CC1`: 644 s.
The same measure for `COc1ccccc1CNc1ncnc2c1CCC2`: 621 s; for `COc1cccc(NC(=O)C2c3ccccc3C(=O)N3CCc4cc(OC)c(OC)cc4C23)c1` (stereo unspecified): 784 s; for `Cc1ccc(Nc2c(-c3nc(C)no3)cnc3nc(C)ccc23)c(C)c1`: 825 s.
The same measure for `COc1ccc(-c2nnc(N3CCC(C(=O)NCCN(C)C)CC3)o2)cc1`: 594 s.
In the case of `O=C(O)CCc1ccc(NCc2cccc(Oc3ccccc3)c2)cc1`, the RP-LC retention time was 1040 s.
The same measure for `O=c1c2ccccc2oc2nc(-c3ccco3)n(Cc3ccccc3)c(=O)c12`: 797 s; for `C=C(C)Cn1c(CNC(=O)c2ccccc2)nc2ccccc21`: 600 s; for `CS(=O)(=O)N1CCC(C(=O)Nc2cccc(Cl)c2)Oc2ccccc21` (stereo unspecified): 954 s.
`Cc1ccnc(NC(=O)C2CCN(S(=O)(=O)c3c(C)nn(CC(=O)N4CCCC4)c3C)CC2)c1` came in with an RP-LC retention time of 619 s.
Take `Cc1ccc(CNC(=O)C2(C)CN(S(C)(=O)=O)CC(=O)N2c2cccc(F)c2)cc1` (stereo unspecified): the RP-LC retention time came to 818 s.
The figure for `COc1cc(C(=O)Nc2ccc(-c3cn4cccnc4n3)cc2)cc(OC)c1OC` is 634 s.
The figure for `CCn1nc(CNC(=O)c2ccccn2)c2ccccc21` is 796 s; for `COc1ccc(OCc2nc(CCN(C)C(=O)COc3ccccc3)no2)cc1` it is 852 s; for `CCOc1cc(C(=O)NCC(=O)Nc2nc3ccccc3[nH]2)cc(OCC)c1OCC` it is 715 s.
In the case of `CCc1c(C(=O)O)nnn1-c1ccc(C)c(Cl)c1`, the RP-LC retention time was found to be 809 s.
The same measure for `CC1(C(=O)NCc2ccccc2)Oc2cccnc2NC1=O` (stereo unspecified): 638 s.
The figure for `Cc1cc(C)cc(N2CCCn3c2nc2c3c(=O)n(C)c(=O)n2C)c1` is 841 s; for `Cc1ccccc1Nc1c(-c2cc(Br)ccc2F)nc2c(C)cccn12` it is 843 s; for `COc1ccc(/C=C/C(=O)c2ccc(OC)cc2OC)cc1` it is 1100 s.
The same measure for `COCc1c(C(=O)O)nnn1-c1ccc(OC)c(Cl)c1`: 706 s.
The compound `CCC(=O)N1c2ccc(S(=O)(=O)CCC(=O)N3CCN(c4ccc(OC)cc4)CC3)cc2CC1C` (stereo unspecified) gave an RP-LC retention time of 785 s.
`CCC(=O)N1CCCc2ccc(NC(=O)c3cccs3)cc21`: the RP-LC retention time stood at 827 s.
The figure for `CNC(=O)c1ccc(-c2nc3cc(NS(=O)(=O)c4ccc(F)cc4F)ccc3n2C)cc1` is 645 s; for `Oc1cccc(-c2nc3ncccn3c2Nc2ccc(Cl)cc2)c1` it is 710 s.
The compound `Cc1cccc(NC(=O)N2CCC(n3cnc4c(C)cccc4c3=O)CC2)c1` displayed an RP-LC retention time of 836 s.
The same measure for `O=C(NCC(c1cccs1)S(=O)(=O)c1cccs1)NC1CCCCC1` (stereo unspecified): 790 s; for `NC(=O)CCC(C(=O)O)N1C(=O)c2ccc(O)cc2C1=O` (stereo unspecified): 620 s.
The same measure for `COc1ccc(CCc2nc3nccc(-c4ccccn4)n3n2)cc1OC`: 752 s; for `O=C(NCCc1ccccc1)N1CCCC1c1nc(-c2ccccc2)no1` (stereo unspecified): 922 s.
The figure for `COc1ccc(C)cc1NC(=O)NC1CCN(c2ccc(F)c(C)c2)C1=O` (stereo unspecified) is 914 s; for `CCCn1cc(CCNC(=O)Nc2ccc(Cl)cc2)c2cccnc21` it is 812 s.
Consider `O=C(NCc1ccco1)C1CCN(c2cc(N3CCSCC3)ncn2)CC1`, for which the RP-LC retention time came out at 620 s.
The same measure for `CCc1ccc(NC(=O)C2CCN(C(=O)c3ncn4c3COC(c3ccccc3)C4)CC2)cc1` (stereo unspecified): 846 s; for `O=C(CCSc1ccccc1)NCCOc1ccc2nnc(-c3ccccc3)n2n1`: 736 s.
On to `NNC(=O)CNc1cccc(Br)c1`, for which the RP-LC retention time came out at 673 s.
The same measure for `CN(C(=O)CN1CCCn2nc(C(=O)O)cc2C1=O)c1ccccc1`: 627 s; for `Cc1cc(C)c(S(=O)(=O)Nc2ccc3nc(N4CCN(C)CC4)cc(C(=O)O)c3c2)cc1C`: 611 s.
The same measure for `Cc1ccc(-c2cc(C(N)=O)[nH]n2)c(C)c1`: 668 s; for `O=C(c1cccc2[nH]ccc12)N1CCC2(CC1)N=C(c1ccc(Cl)cc1)NO2`: 804 s.
The same measure for `COc1ccc(OC)c(NS(=O)(=O)c2cc(-c3nc(C)cs3)n(CC(=O)N3CCCC3)c2)c1`: 903 s.
`CC(=O)N1CCC(N2C(=O)C3(CCCC3)C2c2scnc2C)CC1` (stereo unspecified) gave an RP-LC retention time of 664 s.
The figure for `CSc1ccccc1CN1CCC(CNC(=O)C(=O)NCc2ccc(F)cc2)CC1` is 595 s.
The figure for `O=C(Nc1nnc(-c2ccc(Br)cc2)o1)c1ccccc1F` is 788 s; for `Cc1cnc(C(=O)NC2C[C@H]3CC[C@@H](C2)N3C(=O)c2sccc2C)cn1` (stereo partly specified) it is 663 s.
The figure for `COc1ccc(NS(=O)(=O)c2cn(C)c3ncccc23)cc1` is 740 s.
Turning to `CNC(=O)[C@@H]1C[C@H](Oc2ccccc2)CN1C(=O)COc1ccccc1`, the RP-LC retention time worked out at 603 s.
The same measure for `COCCNC(=O)C1CCN(C(=O)c2cc3ccsc3n2Cc2ccc(Cl)cc2)CC1`: 843 s; for `Cc1cc(C(=O)NC2CCCCC2)nc2cc(-c3cccs3)nn12`: 1220 s.
The figure for `O=C(Cc1cccnc1)N1CCCn2nc(-c3ccc(F)cc3)cc2C1` is 537 s; for `CCCCNc1nc(N)ncc1[N+](=O)[O-]` it is 790 s.
The figure for `CCCN1C(=O)C(CC(=O)N2CCCC2)Sc2ncccc21` (stereo unspecified) is 691 s.
Consider `O=C(CSc1nncc2ccccc12)NCCc1ccccc1`, for which the RP-LC retention time came to 687 s.
In turn, `CCCN1CCC[C@H](c2cccc(O)c2)C1` showed an RP-LC retention time of 588 s.
The same measure for `COc1ccc(-c2csc(Nc3ccccc3OC)n2)cc1`: 1130 s; for `Cc1ccc(C(=O)N2CCc3cn(C)c4cccc(c34)C2)cc1F`: 997 s.
The same measure for `Cc1nc(-c2csc(S(=O)(=O)N3CCC(C(=O)NCc4ccc(Cl)cc4)CC3)c2)no1`: 926 s.
In turn, `CCOC(=O)c1ccccc1NC(=O)Cn1cnc2nc(-c3cccnc3)ncc2c1=O` registered an RP-LC retention time of 744 s.
The compound `Cc1cc(-c2nnc(C3CCC3)o2)c(C)n1CC(=O)Nc1ccccc1` gave an RP-LC retention time of 846 s.
The figure for `CCc1nc2cc(-c3noc(COc4ccccc4)n3)ccc2o1` is 1060 s.
